Entries after “also recorded” stand apart in the source; their conditions may differ. Counter-ions that a name gives are not always drawn.
How the values were obtained:
[1] = system: retinal ischemia reperfusion (I/R) in rat; experiment: Acute changes in rat retinal structure after retinal ischemia reperfusion (I/R), prophylactic settings; format: in vivo, male Wistar Unilever rats; conditions: I/R rats
Excerpt: B-7 Evaluation of Acute Changes in Rat Retinal Structure after Retinal Ischemia Reperfusion (I/R) Prophylactic Settings
Six male Wistar Unilever rats were used per experimental group. On induction day, rats were anesthetized with an intraperitoneal injection of Rompun® and Ketavet® before the pupils of the right eyes (oculus dextrus, OD) were dilated with Alcain eye drops and in addition treated with Vigamox® eye drops. The left eye (oculus sinister, OS) is covered with Bepanthen® eye cream. Under deep anesthesia, the retina and the optic nerve were examined by optical coherence tomography (OCT) as a baseline measurement. 15 minutes before induction, group 2 received an intravenous (IV) bolus of compound (e.g. example 3, formula I-E-R) (i.v. 3 mg/kg in rat plasma). Then, the anterior chamber was punctured with a 30 G needle. Through a tube, 0.9% NaCl solution was pumped into the anterior chamber with a pressure 120 mm Hg. The pressure is regulated with a blood pressure cuff. The intraocular pressure (IOP) was elevated for 45 min. The procedure was successful as the eyeballs discolored because of vascular obstruction. After 45 min, the needle was removed, eye cream was put on the right eye and the animal could wake up. […]
Functional read-out of retinal electrical signal in response to light stimulation “b-wave amplitude (μv)” represents inner retinal function. […]

[2] = system: Streptozotocin-induced DR model in rat; experiment: Streptozotocin-induced DR model in rat (STZ rat model); format: in vivo; conditions: STZ diabetic rats, vs vehicle
Protocol: B-9 Streptozotocin-Induced DR Model in Rat (STZ Rat Model)
135 male 6-week-old male SD rats (200 to 250 g) were randomized to become diabetic or non-diabetic. Following an overnight fast, SD rats were assigned to become diabetic by receiving a single intraperitoneal injection of streptozotocin (55 mg per kg; Sigma-Aldrich, St. Louis, USA) diluted in 0.1M citrate buffer, pH 4.5. Rats were weighed and their blood glucose levels measured (Accu-check Advantage II Blood Glucose Monitor, Roche Diagnostics, USA). Only rats with blood glucose levels greater than 250 mg/dL were considered diabetic (Li et al. 2002). Insulin was administered three times per week to reduce mortality and promote weight gain (2 to 4 units s.c. Humulin NPH, Eli Lilly and Co., Indianapolis, Ind., USA). The pathological events that occur in the early stages of DR were evaluated. Functional read-out of retinal electrical signal in response to light stimulation “b-wave amplitude (μv)” represents inner retinal function. The retinal function ERG (Electroretinography) was tested 2 months after STZ injection according to the method disclosed in McCulloch et al., 2015 and animals were randomized into subgroups with same severity. The animals received treatment after randomization for 2 months and were terminated then after. […]

## CC(C)CN1CCN(c2ccc(-c3ccc(Cl)cc3N3CCC[C@@H](n4ncc(C(=O)O)c4C(F)F)C3)cc2)CC1 [Example 3, 1-{1-[4-Chloro-4′-(4-isobutylpiperazin-1-yl)[biphenyl]-2-yl]piperidin-3-yl}-5-(difluoromethyl)-1H-pyrazole-4-carboxylic acid hydrochloride]
[1]; day 7 post ischemic induction
  retinal structure (OCT and histological examination): preserved retinal structure in both OCT and histological examination
[1]; oral QD from 2 days before to 6 days after induction plus i.v. 3 mg/kg bolus 15 min before induction, day 7 post induction, hydrochloride, 3 mg/kg
  b wave amplitude (ERG, retinal function): significant higher b wave amplitude compared to vehicle treated animals; also recorded: reduces ischemia induced retinal dysfunction
[2]; 15 mg/kg oral gavage QD for 2 months, started 2 months after STZ, hydrochloride, 15 mg/kg
  b wave amplitude (ERG, retinal function): significant higher b wave amplitude compared to vehicle treated animals; also recorded: reduces diabetic induced retinal dysfunction and diabetic retinopathy progression
[2]; oral QD, chronic diabetic retinopathy model
  diabetic retinopathy disease progression (b wave values): prevented disease progression

Reference: US20230346777A1, “USE OF SGC ACTIVATORS FOR THE TREATMENT OF OPHTHALMOLOGIC DISEASES” (Bayer Aktiengesellschaft, priority 2020, published 2023)
